According to patent US6624187B1, “Long wave length absorbing bacteriochlorin alkyl ether analogs” (Health Research, Inc., priority 2000, dated 2003):
“Also recorded” adds a separate entry of the source.

Key:
[1] = In vivo PDT efficacy of bacteriochlorin-N-hexylimide
Description: Compared to the anhydride ring system, compounds with fused imide ring system in other compounds have shown stability in vivo. For example, among non-porphyrin systems, amonafide, an imide derivative and its structural analogs are reported as anti-neoplastic agents in vitro as well as in vivo with good stability. While we could not know how this might apply to non-porphyrin systems, we investigated the effect of such cyclic structures in the bacteriochlorin system. Initially we followed our own methodology developed for the preparation of purpurin-18-N-alkylimides (U.S. Pat. No. 5,952,366 incorporated herein by reference). Unfortunately, that approach produced a complex reaction mixture. Thus, in a modified approach, bacteriopurpurin-a 2 was first reacted with an alkyl amine (e.g. n-hexyl amine). The formation of the intermediate amide was monitored by spectrophotometry and analytical thin layer chromatography. The intermediate amide analog 3, obtained as a mixture of two isomers, was reacted with diazomethane, and the solvent was removed under vacuum. The residue so obtained was re-dissolved in tetrahydrofuran, and solvent was evaporated. This procedure was repeated several times until the disappearance of the absorption at 765 nm and appearance of a new peak at 822 nm.

RIF tumor [2] = assay: In vivo photosensitizing efficacy of bacteriopurpurinimides against RIF tumor; details: for Tumor Response (%): Day 7-90
Method: The photosensitizers were dissolved in known quantity of Tween 80 (Aldrich) surfactant and diluted by a factor of 10 with 5% dextrose solution in water to produce a final Tween 80 concentration of 1%. The solution was then filtered through a syringe filter. The concentration of the solution was determined on the basis of the extinction coefficient value of the photosensitizer at the longest wavelength absorption.
Before injecting the drug to the animals, the purity of the material was confirmed by HPLC using a Spectra-Physics system connected to a SP8 700 solvent delivery system and Kratos 757 absorption detector with a fixed wavelength at 405 or 786 nm. Two solvent systems were used in the HPLC analysis: solvent A was prepared by dissolving anhydrous dibasic sodium phosphate (1.0 g) in 400 ml water. To this was added HPLC grade methanol (600 ml). The pH of the solution was adjusted to 7.5 with phosphoric acid; and solvent B was prepared by dissolving anhydrous dibasic sodium phosphate (0.3 g) in 100 ml water, to this was added methanol (900 ml), and the pH was adjusted to 7.5 with phosphoric acid. Solvents A and B were used as gradient mode (0-10 min A, 10-40 min A-B, 40-50 min B, 50-60 min back to A). In some cases solvent B was used as isocratic mode (column reverse phase C-8, flow rate 1.5 ml/min). Prior to irradiation, the fur over grown and surrounding the tumor was removed with electric clippers. Twenty four hours after injecting the drug, the mouse was placed in a custom made aluminum holder. Standard light dose 75 mW/cm^2 for 30 min for a total incident light dose of 135 J/cm^2 from a tunable dye laser tuned to the maximum red absorption peak at 790 nm (in vivo absorption, determined by in vivo reflectance spectroscopy). Laser output was measured with a power meter.
Following light exposure, the mice were kept in groups of 5/cage and supplied with pelleted food and water ad libitum. Tumor size and gross appearance of both tumor and overlying skin was monitored daily for 90 days after photo-illumination unless growth of non-responsive tumor require early sacrifice of those animals.
Bacteriopurpurin-imides 5-7 above have been evaluated for in vivo studies in a mouse tumor model system (RIF tumor). […] The mice were treated with light (790 nm, 135 J/cm^2) after 24 h post injection of the drug (80% tumor cure on day 21 and 60% on day 90). […] The efficacy of the drug was also determined at variable drug and light doses.

RIF tumor [3] = assay: Tumor uptake and in vivo absorption shift by in vivo reflectance spectroscopy; set-up: species or system mouse
Method: FIGS. 4A and 4B show curves of in vivo light wave absorption of compound 7 in RIF tumor at 24 hours and 5 days post injection.
The tumor uptake and in vivo shift in the long wavelength absorption of the bacteriopurpurin-imide 7 was determined by in vivo reflectance spectroscopy. […] Thus, the tumors were irradiated with light at that particular wavelength. […] In vivo studies with these and other bacteriochlorin analogs at variable treatment conditions are currently in progress.

mouse foot tissue = assay: Foot response phototoxicity in mouse foot tissue; type: in vivo; details: 0.47 mmol/kg I.V.; 135 J/cm^2 at 790 nm; feet illuminated 5 days after injection
Method: Since prolonged cutaneous photosensitivity is a serious side-effect of Photofrin® administration, we tested the phototoxicity of 3-deacetyl-3-(1-heptyloxyethyl) bacteriopurpurin-18-N-hexylimide 7 in mouse foot tissue and the therapeutic drug and light doses. Mice were injected (I.V.) with 0.47 mmol/kg of the drug. Feet were illuminated with 135 J/cm^2 at 790 nm laser light on days 1, 2, 3, 4 and 5 (FIG. 5). Foot response was graded according to the following arbitrary scale: 0, no difference from normal; 0.1, very slight edema; 0.3, slight edema; 0.5, moderate edema; 0.75, large edema; 1, large edema with exudate; 1.2, moderate reddening with slight scaly or crusty appearance; 1.65, slight damage to toes; 1.75, definite damage or slight fusion of toes; 2.0, most toes fused; 2.5, foot almost shapeless with no toes; 3, only stub of foot remaining.

[4] = injected dose 1.0 μmol/kg, light 790 nm 135J/cm^2 24 h post injection, C3H mice
[5] = injected dose 0.2 μmol/kg, light 790 nm 175J/cm^2 24 h post injection
[6] = injected dose 0.47 μmol/kg, light 790 nm 135J/cm^2 24 h post injection

## 3-Acetyl-bacteriopurpurin-18-N-hexylimide [Compound 4]
[1]
  in vivo PDT efficacy: did not produce any significant in vivo PDT efficacy

## CCCCCCN1C(=O)c2c3nc(cc4[nH]c(cc5nc(cc6[nH]c2c(c6C)C1=O)[C@H](CC)[C@H]5C)c(C(C)O)c4C)[C@@H](C)[C@@H]3CCC(=O)OCCC (stereo partly shown) [Compound 5, 3-Deacetyl-3-(1-hydroxyethyl)bacteriopurrurin-18-N-hexylimide]
RIF tumor [2]; [4]
  Tumor Response (%): did not produce any PDT efficacy; also recorded: NO RESPONSE

## C=Cc1c(C)c2cc3nc(c4c5[nH]c(cc6nc(cc1[nH]2)[C@H](C)[C@H]6CC)c(C)c5C(=O)N(CCCCCC)C4=O)[C@@H](CCC(=O)OCCC)[C@@H]3C [Compound 6, 3-Deacetyl-3-vinyl-bacteriopurpurin-18-N-hexylimide Propylester]
RIF tumor [2]; [4]
  Tumor Response (%): did not produce any PDT efficacy; also recorded: NO RESPONSE

## CCCCCCCOC(C)c1c(C)c2cc3nc(c4c5[nH]c(cc6nc(cc1[nH]2)[C@H](C)[C@H]6CC)c(C)c5C(=O)N(CCCCCC)C4=O)[C@@H](CCC(=O)OCCC)[C@@H]3C (stereo partly shown) [Compound 7, 3-Deacetyl-3-(1-heptyloxyethyl)-bacteriopurpurin-N-hexylimide Propyl Ester]
RIF tumor [2]; drug dose 0.2 μmol/kg, light dose 175 J/cm^2
  mice tumor free on day 90: four out of six
RIF tumor [2]; drug dose 1.0 μmol/kg, light 790 nm, 135 J/cm^2
  mice died after the light treatment: 6/6
RIF tumor [2]; injected dose 0.2 μmol/kg, light 790 nm 135J/cm^2 24 h post injection
  Tumor Response (%): did not show any PDT efficacy; also recorded: NO RESPONSE
RIF tumor [2]; [5]
  Tumor Response (%) Day 7: 100%
  Tumor Response (%) Day 21: 70%
  Tumor Response (%) Day 90: 70%
RIF tumor [2]; [6]
  Tumor Response (%) Day 7: 80%
  Tumor Response (%) Day 21: 80%
  Tumor Response (%) Day 90: 60%
RIF tumor [2]; [4]
  Tumor Response (%): ALL MICE DIED
RIF tumor [3]; 5 day post injection
  in vivo stability of fused imide ring system: quite stable in vivo
RIF tumor [3]; day 5 versus day 1 post injection, RIF tumor
  tumor uptake: significantly higher tumor uptake at day 5 than day 1
Mouse foot tissue
  foot response phototoxicity: did not show any toxicity
